How the values were obtained:
Del19/T790M/C797S EGFR = assay: EGFR degradation HTRF assay in H1975-clone #28 (DTC) cells; format: cell-based; details: H1975 # 28 DTC (Del19/T790M/C797S), 16h treatment; for DC50: HTRF; for Dmax (%): maximum percentage of degradation
In short: (§1)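 Cells carrying only lentiviral mutant EGFR, since endogenous alleles were removed by CRISPR, received compounds on day 2 for 16 h. Final concentrations ran from 10 uM down in 5-fold steps over 8 doses. After lysis, EGFR levels were quantified by HTRF and DC50 derived by curve fitting.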

L858R/T790M/C797S EGFR = target: T1, L858R/T790M/C797S EGFR (Homo sapiens, UniProt P00533, C797S/L858R/T790M); assay: EGFR degradation HTRF assay in H1975-clone #25 (LTC) cells; format: cell-based; details: 16h treatment; for DC50: H1975 # 25-LTC (L858R/T790M/C797S), HTRF; for Dmax: NCI-H1975, H1975 # 25-LTC (L858R/T790M/C797S), maximum percentage of degradation
T1 construct: expressed in transfected cells; host or cells: H1975 clone #25 (lentiviral over-expression, endogenous EGFR knocked out by sgRNA)
T1 sequence (P00533 25-1210 T790M/C797S/L858R): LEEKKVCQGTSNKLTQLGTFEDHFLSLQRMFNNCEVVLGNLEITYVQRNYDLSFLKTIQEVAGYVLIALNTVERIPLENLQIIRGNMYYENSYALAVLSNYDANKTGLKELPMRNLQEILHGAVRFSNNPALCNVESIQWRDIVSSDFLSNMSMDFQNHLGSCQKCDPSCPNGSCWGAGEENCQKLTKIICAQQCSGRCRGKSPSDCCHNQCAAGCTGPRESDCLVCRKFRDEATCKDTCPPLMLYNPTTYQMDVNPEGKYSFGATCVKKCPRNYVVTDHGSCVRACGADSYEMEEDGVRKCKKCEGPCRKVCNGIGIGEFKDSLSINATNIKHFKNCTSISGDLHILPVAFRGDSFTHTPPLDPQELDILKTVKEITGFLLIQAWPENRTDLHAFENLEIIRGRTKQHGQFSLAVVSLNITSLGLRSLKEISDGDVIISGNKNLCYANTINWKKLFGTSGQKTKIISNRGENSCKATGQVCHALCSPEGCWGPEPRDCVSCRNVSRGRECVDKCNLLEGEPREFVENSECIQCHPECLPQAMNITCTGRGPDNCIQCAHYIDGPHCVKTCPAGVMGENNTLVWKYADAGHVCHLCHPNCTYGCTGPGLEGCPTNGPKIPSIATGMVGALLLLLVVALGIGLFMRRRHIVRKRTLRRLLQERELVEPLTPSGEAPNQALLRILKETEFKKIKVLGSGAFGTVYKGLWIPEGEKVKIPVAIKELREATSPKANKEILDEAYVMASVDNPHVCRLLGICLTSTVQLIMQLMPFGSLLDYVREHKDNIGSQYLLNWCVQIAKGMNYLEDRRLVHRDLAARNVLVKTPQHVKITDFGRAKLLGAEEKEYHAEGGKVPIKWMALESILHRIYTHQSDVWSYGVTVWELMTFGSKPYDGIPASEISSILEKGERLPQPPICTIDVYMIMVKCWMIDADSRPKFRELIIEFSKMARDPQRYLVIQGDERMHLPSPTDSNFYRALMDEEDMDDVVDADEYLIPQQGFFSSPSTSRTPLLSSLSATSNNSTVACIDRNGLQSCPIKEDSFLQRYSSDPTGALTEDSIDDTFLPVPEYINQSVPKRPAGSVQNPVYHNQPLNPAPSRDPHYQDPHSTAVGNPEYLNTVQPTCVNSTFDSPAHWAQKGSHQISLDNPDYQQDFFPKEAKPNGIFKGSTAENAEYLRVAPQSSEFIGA
In short: as §1

Cc1cc2cc(n1)-c1cnn(C)c1OCCC[C@@H](C)CN1/C(=N/C2=O)Nc2ccc(C(=O)N(C)C3CCN(CCc4cccc5c4oc(=O)n5C4CCC(=O)NC4=O)CC3)cc21 (stereo partly drawn) [Example 315, (7R,E)-N-(1-(2-(3-(2,6-dioxopiperidin-3-yl)-2-oxo-2,3-dihydrobenzo[d]oxazol-7-yl)ethyl)piperidin-4-yl)-N,1^1,2,7-tetramethyl-3-oxo-5^2,5^3-dihydro-1^1H,5^1H-11-oxa-4-aza-5(2,1)-benzo[d]imidazola-2(2,4)-pyridina-1(4,5)-pyrazolacycloundecaphane-5^6-carboxamide]
DC50 (Del19/T790M/C797S EGFR): 3.18 nM
Dmax (%) (Del19/T790M/C797S EGFR): 63.86%
DC50 (L858R/T790M/C797S EGFR): 1.37 nM
Dmax (L858R/T790M/C797S EGFR): 80.5%

Cc1cc2cc(n1)-c1cnn(C)c1OCCC[C@@H](C)CN1/C(=N/C2=O)Nc2ccc(N3CCN(CCN(C)c4ccc5c(c4)CN([C@H]4CCC(=O)NC4=O)C5=O)CC3)cc21 [Example 405, (S)-3-(5-(methyl(2-(4-((R,E)-1^1,2^6,7-trimethyl-3-oxo-5^2,5^3-dihydro-1^1H,5^1H-11-oxa-4-aza-5(2,1)-benzo[d]imidazola-2(2,4)-pyridina-1(4,5)-pyrazolacycloundecaphane-5^6-yl)piperazin-1-yl)ethyl)amino)-1-oxoisoindolin-2-yl)piperidine-2,6-dione]
DC50 (Del19/T790M/C797S EGFR): 1.26 nM
Dmax (%) (Del19/T790M/C797S EGFR): 78.67%
DC50 (L858R/T790M/C797S EGFR): 0.677 nM
Dmax (L858R/T790M/C797S EGFR): 80.5%

Cc1cc2cc(n1)-c1cnn(C)c1OCCC[C@@H](C)CN1/C(=N/C2=O)Nc2ccc(CN3CCC(N4CCN(C(=O)[C@H]5CCN(c6ccc7c(c6)C(=O)N(C6CCC(=O)NC6=O)C7=O)C5)CC4)CC3)cc21 (some centres unmarked) [Example 216]
DC50 (Del19/T790M/C797S EGFR): 3.02 nM
Dmax (%) (Del19/T790M/C797S EGFR): 82.64%
DC50 (L858R/T790M/C797S EGFR): 9.55 nM
Dmax (L858R/T790M/C797S EGFR): 81.8%

Cc1cc2cc(n1)-c1cnn(C)c1OCCC[C@@H](C)CN1/C(=N/C2=O)Nc2cc(C)c(CN3CCN(CC4CN(c5cc(F)c([C@H]6CCC(=O)NC6=O)c(F)c5)C4)CC3)cc21 [Example 147, (R)-3-(2,6-difluoro-4-(3-((4-(((R,E)-1^1,2^6,5,7-tetramethyl-3-oxo-5^2,5′-dihydro-1^1H,5^1H-11-oxa-4-aza-5(2,1)-benzo[d]imidazola-2(2,4)-pyridina-(4,5)-pyrazolacycloundecaphane-5^6-yl)methyl)piperazin-1-yl)methyl)azetidin-1-yl)phenyl)piperidine-2,6-dione]
DC50 (Del19/T790M/C797S EGFR): 2.41 nM
Dmax (%) (Del19/T790M/C797S EGFR): 69.47%
DC50 (L858R/T790M/C797S EGFR): 1.83 nM
Dmax (L858R/T790M/C797S EGFR): 81.4%

Cc1cc2cc(n1)-c1cnn(C)c1OCCC[C@@H](C)CN1/C(=N/C2=O)Nc2ccc(CN3CCN(C(=O)C4CCN(c5cc(F)c([C@H]6CCC(=O)NC6=O)c(F)c5)CC4)CC3)cc21 [Example 162, (R)-3-(2,6-difluoro-4-(4-(4-(((R,E)-1^1,2^6,7-trimethyl-3-oxo-5^2, 5^3-dihydro-1^1H,5^1H-11-oxa-4-aza-5(2,1)-benzo[d]imidazola-2(2,4)-pyridina-1(4,5)-pyrazolacycloundecaphane-5^6-yl)methyl)piperazine-1-carbonyl)piperidin-1-yl)phenyl)piperidine-2,6-dione]
DC50 (Del19/T790M/C797S EGFR): 0.557 nM
Dmax (%) (Del19/T790M/C797S EGFR): 71.45%
DC50 (L858R/T790M/C797S EGFR): 0.598 nM
Dmax (L858R/T790M/C797S EGFR): 79.1%

Cc1cc2cc(n1)-c1cnn(C)c1OCC[C@H]1C[C@@H]1CN1/C(=N/C2=O)Nc2ccc(N3CCN([C@H]4C[C@H](Nc5cc(F)c([C@H]6CCC(=O)NC6=O)c(F)c5)C4)CC3)cc21 (single isomer, unassigned) [Example 443]
DC50 (Del19/T790M/C797S EGFR): 0.633 nM
Dmax (%) (Del19/T790M/C797S EGFR): 78.26%
DC50 (L858R/T790M/C797S EGFR): 1.25 nM
Dmax (L858R/T790M/C797S EGFR): 86.6%

Cc1cc2cc(n1)-c1cnn(C)c1OCCC[C@@H](C)CN1/C(=N/C2=O)Nc2ccc(C(=O)N(C)C3CC4CCCC(C3)N4CCc3cc(F)c([C@H]4CCC(=O)NC4=O)c(F)c3)cc21 (stereo partly drawn) [Example 266, (7R,E)-N-(9-(4-((R)-2,6-dioxopiperidin-3-yl)-3,5-difluorophenethyl)-9-azabicyclo[3.3.1]nonan-3-yl) -N,1^1,2^6,7-tetramethyl-3-oxo-5^2,5^3-dihydro-1^1H,5^1H-11-oxa-4-aza-5(2,1)-benzo[d]imidazola-2(2,4)-pyridina-1(4,5)-pyrazolacycloundecaphane-5^6-carboxamide]
DC50 (Del19/T790M/C797S EGFR): 0.65 nM
Dmax (%) (Del19/T790M/C797S EGFR): 75.93%
DC50 (L858R/T790M/C797S EGFR): 1.51 nM
Dmax (L858R/T790M/C797S EGFR): 81.4%

Cc1cc2cc(n1)-c1cnn(C)c1OCCC[C@@H](C)CN1/C(=N/C2=O)Nc2ccc(C(=O)N(C)[C@@H]3CCN(CCc4cc(F)c([C@H]5CCC(=O)NC5=O)c(F)c4)[C@@H](C)C3)cc21 [Example 258, (R,E)-N—((2S,4R)-1-(4-((R)-2,6-dioxopiperidin-3-yl)-3,5-difluorophenethyl)-2-methylpiperidin-4-yl) -N,1^1,2^6,7-tetramethyl-3-oxo-5^2,5^3-dihydro-1^1H,5^1H-11-oxa-4-aza-5(2,1)-benzo[d]imidazola-2(2,4)-pyridina-1(4,5)-pyrazolacycloundecaphane-5^6-carboxamide]
DC50 (Del19/T790M/C797S EGFR): 0.577 nM
Dmax (%) (Del19/T790M/C797S EGFR): 81.96%
DC50 (L858R/T790M/C797S EGFR): 0.381 nM
Dmax (L858R/T790M/C797S EGFR): 88.2%

COc1cc2cc(n1)-c1cnn(C)c1OCCC[C@@H](C)CN1/C(=N/C2=O)Nc2ccc(N3CCN(C4CCN(c5cc(F)c([C@H]6CCC(=O)NC6=O)c(F)c5)CC4)CC3)cc21 [Example 453, (R)-3-(2,6-difluoro-4-(4-(4-((R,E)-2^6-methoxy-1^1,7-dimethyl-3-oxo-5^2,5^3-dihydro-1^1H,5^1H-11-oxa-4-aza-5(2,1)-benzo[d]imidazola-2(2,4)-pyridina-1(4,5)-pyrazolacycloundecaphane-5^6-yl)piperazin-1-yl)piperidin-1-yl)phenyl)piperidine-2,6-dione]
DC50 (Del19/T790M/C797S EGFR): 1.43 nM
Dmax (%) (Del19/T790M/C797S EGFR): 82.83%
DC50 (L858R/T790M/C797S EGFR): 3.17 nM
Dmax (L858R/T790M/C797S EGFR): 85.3%

Cc1cc2cc(n1)-c1cnn(C)c1OCCC[C@@H](C)CN1/C(=N/C2=O)Nc2ccc(N3CCN(C4CCN(c5cc(F)c([C@H]6CCC(=O)NC6=O)c(F)c5)CC4)C(=O)C3)cc21 [Example 425, (R)-3-(2,6-difluoro-4-(4-(2-oxo-4-((R,E)-1^1,2^6,7-trimethyl-3-oxo-5^2,5^3-dihydro-1^1H,5^1H-11-oxa-4-aza-5(2,1)-benzo[d]imidazola-2(2,4)-pyridina-1(4,5)-pyrazolacycloundecaphane-5^6-yl)piperazin-1-yl)piperidin-1-yl)phenyl)piperidine-2,6-dione]
DC50 (Del19/T790M/C797S EGFR): 0.957 nM
Dmax (%) (Del19/T790M/C797S EGFR): 83.85%
DC50 (L858R/T790M/C797S EGFR): 0.73 nM
Dmax (L858R/T790M/C797S EGFR): 92.7%

Cc1cc2cc(n1)-c1cnn(C)c1OCCC[C@@H](C)CN1/C(=N/C2=O)Nc2ccc(N3CCN(C4CCN(c5ccc(C6CCC(=O)NC6=O)nc5C)CC4)[C@@H](CC#N)C3)cc21 (stereo partly drawn) [Example 456, 2-((2S)-1-(1-(6-(2,6-dioxopiperidin-3-yl)-2-methylpyridin-3-yl)piperidin-4-yl)-4-((R,E)-1^1,2^6,7-trimethyl-3-oxo-5^2,5^3-dihydro-1^1H,5^1H-11-oxa-4-aza-5(2,1)-benzo[d]imidazola-2(2,4)-pyridina-1(4,5)-pyrazolacycloundecaphane-5^6-yl)piperazin-2-yl)acetonitrile]
DC50 (Del19/T790M/C797S EGFR): 0.542 nM
Dmax (%) (Del19/T790M/C797S EGFR): 84.5%
DC50 (L858R/T790M/C797S EGFR): 0.676 nM
Dmax (L858R/T790M/C797S EGFR): 93.2%

Cc1cc2cc(n1)-c1cnn(C)c1OCCC[C@@H](C)CN1/C(=N/C2=O)Nc2ccc(CN3C[C@@H]4C[C@H]3CN4C(=O)[C@H]3CN(c4cc(F)c([C@H]5CCC(=O)NC5=O)c(F)c4)CC3(C)C)cc21 [Example 185, (R)-3-(4-((R)-3,3-dimethyl-4-((1S,4S)-5-(((R,E)-1^1,2^6,7-trimethyl-3-oxo-5^2,5^3-dihydro-1^1H,5^1H-11-oxa-4-aza-5(2,1)-benzo[d]imidazola-2(2,4)-pyridina-1(4,5)-pyrazolacycloundecaphane-5^6-yl)methyl)-2,5-diazabicyclo[2.2.1]heptane-2-carbonyl)pyrrolidin-1-yl)-2,6-difluorophenyl)piperidine-2,6-dione]
DC50 (Del19/T790M/C797S EGFR): 0.752 nM
Dmax (%) (Del19/T790M/C797S EGFR): 60.18%
DC50 (L858R/T790M/C797S EGFR): 1.04 nM
Dmax (L858R/T790M/C797S EGFR): 87.1%

Cc1cc2cc(n1)-c1cnn(C)c1OCCC[C@@H](C)CN1/C(=N/C2=O)Nc2ccc(N3CCC(C(=O)N(C)CCc4cc(F)c([C@H]5CCC(=O)NC5=O)c(F)c4)CC3)cc21 [Example 335, N-(4-((R)-2,6-dioxopiperidin-3-yl)-3,5-difluorophenethyl)-N-methyl-1-((R,E)-1^1,2^6,7-trimethyl-3-oxo-5^2,5^3-dihydro-1^1H,5^1H-11-oxa-4-aza-5(2,1)-benzo[d]imidazola-2(2,4)-pyridina-1(4,5)-pyrazolacycloundecaphane-5^6-yl)piperidine-4-carboxamide]
DC50 (Del19/T790M/C797S EGFR): 0.789 nM
Dmax (%) (Del19/T790M/C797S EGFR): 60.16%
DC50 (L858R/T790M/C797S EGFR): 0.657 nM
Dmax (L858R/T790M/C797S EGFR): 79.4%

Cc1cc2cc(n1)-c1cnn(C)c1OCCC[C@@H](C)CN1/C(=N/C2=O)Nc2ccc(CN3CCC(N4CCN(C5CN(c6cc(F)c([C@H]7CCC(=O)NC7=O)c(F)c6)C5)CC4)CC3)cc21 [Example 18, (R)-3-(2,6-difluoro-4-(3-(4-(1-(((R,E)-1^1,2^6,7-trimethyl-3-oxo-5^2,5^3-dihydro-1^1H,5^1H-11-oxa-4-aza-5(2,1)-benzo[d]imidazola-2(2,4)-pyridina-1(4,5)-pyrazolacycloundecaphane-5^6-yl)methyl)piperidin-4-yl)piperazin-1-yl)azetidin-1-yl)phenyl)piperidine-2,6-dione]
DC50 (Del19/T790M/C797S EGFR): 2.1 nM
Dmax (%) (Del19/T790M/C797S EGFR): 75.8%
DC50 (L858R/T790M/C797S EGFR): 4.4 nM
Dmax (L858R/T790M/C797S EGFR): 87.4%
